Data from US20140135319A1, “6-SUBSTITUTED IMIDAZOPYRAZINES FOR USE AS MPS-1 AND TKK INHIBITORS IN THE TREATMENT OF HYPERPROLIFERATIVE DISORDERS” (BAYER INTELLECTUAL PROPERTY GMBH, priority 2010, published 2014).

The compounds below were run against T1, human kinase Mps-1 (Homo sapiens, UniProt P33981) (assay: Mps-1 kinase assay (TR-FRET)). Conditions: GST-tagged human full length recombinant Mps-1; 10 μM ATP; 1 μM peptide substrate; 60 min at 22° C.
T1 construct: N-terminally GST-tagged human full length recombinant Mps-1 kinase; GST (N); purchased Invitrogen, Karslruhe, Germany PV4071
T1 sequence (P33981 1-857): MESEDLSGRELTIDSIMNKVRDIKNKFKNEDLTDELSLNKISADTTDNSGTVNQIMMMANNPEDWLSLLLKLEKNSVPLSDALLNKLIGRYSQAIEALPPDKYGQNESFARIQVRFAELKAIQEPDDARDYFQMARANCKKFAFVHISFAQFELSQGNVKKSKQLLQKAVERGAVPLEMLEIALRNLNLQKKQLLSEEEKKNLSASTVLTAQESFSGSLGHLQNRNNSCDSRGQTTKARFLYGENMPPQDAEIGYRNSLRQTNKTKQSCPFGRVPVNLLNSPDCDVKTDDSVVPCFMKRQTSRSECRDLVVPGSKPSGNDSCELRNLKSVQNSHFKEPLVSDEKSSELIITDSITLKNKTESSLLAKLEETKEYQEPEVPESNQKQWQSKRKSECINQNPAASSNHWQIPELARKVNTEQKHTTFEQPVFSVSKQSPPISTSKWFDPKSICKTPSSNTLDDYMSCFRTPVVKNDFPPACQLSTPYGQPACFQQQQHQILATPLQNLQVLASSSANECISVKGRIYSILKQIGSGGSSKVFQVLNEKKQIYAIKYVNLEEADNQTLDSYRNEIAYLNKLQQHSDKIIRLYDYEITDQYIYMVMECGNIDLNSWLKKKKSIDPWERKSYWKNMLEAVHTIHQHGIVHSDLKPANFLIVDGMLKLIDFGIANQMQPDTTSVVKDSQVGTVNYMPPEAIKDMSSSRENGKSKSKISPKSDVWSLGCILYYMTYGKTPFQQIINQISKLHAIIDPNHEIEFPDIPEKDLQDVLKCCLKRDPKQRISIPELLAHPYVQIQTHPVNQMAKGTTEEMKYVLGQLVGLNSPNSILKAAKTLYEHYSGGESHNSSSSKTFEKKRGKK
Format: biochemical
Description: The human kinase Mps-1 phosphorylates a biotinylated substrate peptide. Detection of the phosphorylated product is achieved by time-resolved fluorescence resonance energy transfer (TR-FRET) from Europium-labelled anti-phospho-Serine/Threonine antibody as donor to streptavidin labelled with cross-linked allophycocyanin (SA-XLent) as acceptor. Compounds are tested for their inhibition of the kinase activity.
N-terminally GST-tagged human full length recombinant Mps-1 kinase (purchased from Invitrogen, Karslruhe, Germany, cat. no PV4071) was used. As substrate for the kinase reaction a biotinylated peptide of the amino-acid sequence […] (C-terminus in amide form, purchased from Biosynthan GmbH, Berlin) was used.
The concentration of Mps-1 in the assay was adjusted to the activity of the enzyme lot and was chosen appropriate to have the assay in the linear range, typical enzyme concentrations were in the range of about 1 nM (final conc. in the 5 μl assay volume).
The resulting mixture was incubated 1 h at 22° C. to allow the binding of the phosphorylated peptide to the anti-phospho(Ser/Thr)-Europium-antibody. Subsequently the amount of phosphorylated substrate was evaluated by measurement of the resonance energy transfer from the Europium-labelled anti-phospho(Ser/Thr) antibody to the Streptavidin-XLent. Therefore, the fluorescence emissions at 620 nm and 665 nm after excitation at 350 nm was measured in a Viewlux TR-FRET reader (PerkinElmer LAS, Rodgau-Jügesheim, Germany). The “blank-corrected normalized ratio” (a Viewlux specific readout, similar to the traditional ratio of the emissions at 665 nm and at 622 nm, in which blank and Eu-donor crosstalk are subtracted from the 665 nm signal before the ratio is calculated) was taken as the measure for the amount of phosphorylated substrate.

Going from `O=C(NC1CC1)c1ccc(-c2cnc3c(NCC4CCCO4)nc(-c4ccn[nH]4)cn23)cc1Cl` (stereo not shown) [Example 1-44, 2-chloro-N-cyclopropyl-4-{6-(1H-pyrazol-5-yl)-8-[(tetrahydrofuran-2-ylmethyl)amino]imidazo [1,2-a]pyrazin-3-yl} benzamide] to `CC(C)CNc1nc(-c2ccn[nH]2)cn2c(-c3ccc(C(=O)NC4CC4)c(F)c3)cnc12` [Example 1-51, N-cyclopropyl-2-fluoro-4-{8-[(2-methylpropyl)amino]-6-(1H-pyrazol-5-yl)imidazo[1,2-a]pyrazin-3-yl}benzamide], the IC50 falls from 127 nM to 8.3 nM (15-fold). The second is the more potent here.

`CC(C)CNc1nc(CCCN(C)C)cn2c(-c3ccc(C(=O)NC4CC4)cc3)cnc12` [Example 7-2, N-cyclopropyl-4-{6-[3-(dimethylamino)propyl]-8-[(2-methylpropyl)amino]imidazo[1,2-a]pyrazin-3-yl}benzamide] and `CC(C)CNc1nc(C#N)cn2c(-c3ccc(C(=O)NC4CC4)cc3)cnc12` [Example 5-1, 4-{6-cyano-8-[(2-methylpropyl)amino]imidazo[1,2-a]pyrazin-3-yl}-N-cyclopropyl benzamide] are within 1.5-fold of each other in IC50: 42.2 nM for the first, 55.1 nM for the second.

`CC(C)CCNc1nc(-c2ccncc2)cn2c(-c3ccc(C(=O)NC4CC4)cc3)cnc12` [Example 3-6, N-cyclopropyl-4-{8-[(3-methylbutyl)amino]-6-(pyridin-4-yl)imidazo [1,2-a]pyrazin-3-yl} benzamide] and `O=C(NC1CC1)c1ccc(-c2cnc3c(NCc4ccco4)nc(-c4ccncc4)cn23)cc1` [Example 3-20, N-cyclopropyl-4-{8-[(furan-2-ylmethyl)amino]-6-(pyridin-4-yl)imidazo [1,2-a]pyrazin-3-yl} benzamide] are within 1.5-fold of each other in IC50: 2.4 nM for the first, 3.5 nM for the second.

First: C=C(C)CNc1nc(-c2ccccc2)cn2c(-c3ccc(C(=O)NC4CC4)cc3)cnc12 [Example 3-40, N-Cyclopropyl-4-{8-[(2-methylprop-2-en-1-yl)amino]-6-phenylimidazo[1,2-a]pyrazin-3-yl}benzamide]
Second: C#CCNc1nc(-c2ccccc2)cn2c(-c3ccc(C(=O)NC4CC4)cc3)cnc12 [Example 3-2, N-cyclopropyl-4-[6-phenyl-8-(prop-2-yn-1-ylamino)imidazo[1,2-a]pyrazin-3-yl]benzamide]
The IC50 of the first is 2-fold lower: 3.7 nM for the first, 7.4 nM for the second. The first is the more potent here.

Compared with `O=C(NC1CC1)c1ccc(-c2cnc3c(NCCC(F)(F)F)nc(-c4ccoc4)cn23)cc1F` [Example 1-54, N-cyclopropyl-2-fluoro-4-{6-(furan-3-yl)-8-[(3,3,3-trifluoropropyl)amino]imidazo[1,2-a]pyrazin-3-yl}benzamide], `O=C(NC1CC1)c1ccc(-c2cnc3c(NCCC(F)(F)F)nc(-c4ccncc4)cn23)cc1F` [Example 1-53, N-cyclopropyl-2-fluoro-4-{6-(pyridin-4-yl)-8-[(3,3,3-trifluoropropyl)amino]imidazo[1,2-a]pyrazin-3-yl}benzamide] is 1.7-fold lower in IC50: 6.6 nM for the first, 3.8 nM for the second.

`CC(C)CNc1nc(-c2ccoc2)cn2c(-c3ccc(C(=O)NC4CC4)c(F)c3)cnc12` [Example 1-50, N-cyclopropyl-2-fluoro-4-{6-(furan-3-yl)-8-[(2-methylpropyl)amino]imidazo[1,2-a]pyrazin-3-yl}benzamide] and `CC(C)CNc1nc(-c2ccncc2)cn2c(-c3ccc(C(=O)NC4CC4)c(Cl)c3)cnc12` [Example 1-32, 2-chloro-N-cyclopropyl-4-{8-[(2-methylpropyl)amino]-6-(pyridin-4-yl)imidazo[1,2-a]pyrazin-3-yl}benzamide] are within 1.5-fold of each other in IC50: 9.2 nM for the first, 6.2 nM for the second.

`Cc1cc(-c2cnc3c(NCCC(F)(F)F)nc(-c4cn[nH]c4)cn23)ccc1C(=O)NC1CC1` [Example 1-78, N-cyclopropyl-2-methyl-4-{6-(1H-pyrazol-4-yl)-8-[(3,3,3-trifluoro-propyl)amino]imidazo [1,2-a]pyrazin-3-yl} benzamide] and `Cc1cc(-c2cnc3c(NCCC(F)(F)F)nc(-c4cccnc4)cn23)ccc1C(=O)NC1CC1` [Example 1-70, N-cyclopropyl-2-methyl-4-{6-(pyridin-3-yl)-8-[(3,3,3-trifluoropropyl)amino]imidazo[1,2-a]pyrazin-3-yl}benzamide] are within 1.5-fold of each other in IC50: 4.7 nM for the first, 4.2 nM for the second.

Going from `O=C(NC1CC1)c1ccc(-c2cnc3c(NCc4ccccc4F)nc(-c4ccncc4)cn23)cc1` [Example 3-9, N-cyclopropyl-4-{8-[(2-fluorobenzyl)amino]-6-(pyrdin-4-yl)imidazo [1,2-a]pyrazin-3-yl} benzamide] to `NC/C=C\CCNc1nc(-c2ccccc2)cn2c(-c3ccc(C(=O)NC4CC4)cc3)cnc12` [Example 4-3, 4-(8-{[(3Z)-5-aminopent-3-en-1-yl]amino}-6-phenylimidazo[1,2-a]pyrazin-3-yl)-N-cyclopropylbenzamide], the IC50 rises from 1 nM to 4.6 nM (4.6-fold). The first is the more potent here.

Going from `Cc1cc(-c2cnc3c(NCCC(F)(F)F)nc(CNc4ccccc4)cn23)ccc1C(=O)NC1CC1` [Example 11-2, N-cyclopropyl-2-methyl-4-{6-[(phenylamino)methyl]-8-[(3,3,3-trifluoropropyl)amino]imidazo[1,2-a]pyrazin-3-yl}benzamide] to `O=C(NC1CC1)c1ccc(-c2cnc3c(NCCC(F)(F)F)nc(C4=CCOCC4)cn23)cc1Cl` [Example 1-39, 2-chloro-N-cyclopropyl-4-{6-(3,6-dihydro-2H-pyran-4-yl)-8-[(3,3,3-trifluoropropyl)amino]imidazo[1,2-a]pyrazin-3-yl}benzamide], the IC50 rises from 1.2 nM to 12.2 nM (10-fold).

Compared with `CC(C)CNc1nc(N2CCCCS2(=O)=O)cn2c(-c3ccc(C(=O)NC4CC4)cc3)cnc12` [Example 12-1, N-cyclopropyl-4-{6-(1,1-dioxido-1,2-thiazinan-2-yl)-8-[(2-methylpropyl)amino]imidazo[1,2-a]pyrazin-3-yl}benzamide], `CC(C)CNc1nc(C(=O)NCCN2CCCCC2)cn2c(-c3ccc(C(=O)NC4CC4)cc3)cnc12` [Example 8-2, 3-[4-(cyclopropylcarbamoyl)phenyl]-8-[(2-methylpropyl)amino]-N-[2-(piperidin-1-yl)ethyl] imidazo[1,2-a]pyrazine 6-carboxamide] is 1.8-fold higher in IC50: 6.5 nM for the first, 11.7 nM for the second. The first is the more potent here.

First: CC(C)(O)CNc1nc(C2=CCOCC2)cn2c(-c3ccc(C(=O)NC4CC4)c(F)c3)cnc12 [Example 1-60, N-cyclopropyl-4-{6-(3,6-dihydro-2H-pyran-4-yl)-8-[(2-hydroxy-2-methylpropyl)amino]imidazo[1,2-a]pyrazin-3-yl}-2-fluorobenzamide]
Second: Cn1nccc1CNc1nc(C2=CCOCC2)cn2c(-c3ccc(C(=O)NC4CC4)c(F)c3)cnc12 [Example 1-67, N-cyclopropyl-4-[6-(3,6-dihydro-2H-pyran-4-yl)-8-{[(1-methyl-1H-pyrazol-5-yl)methyl]amino}imidazo[1,2-a]pyrazin-3-yl]-2-fluoro-benzamide]
The IC50 of the first is 1.9-fold higher: 30.4 nM for the first, 15.7 nM for the second. The second is the more potent here.

Compared with `Cn1nccc1-c1cn2c(-c3ccc(C(=O)NC4CC4)c(Cl)c3)cnc2c(NCCCN)n1` [Example 1-98, 4-{8-[(3-Aminopropyl)amino]-6-(1-methyl-1H-pyrazol-5-yl)imidazo[1,2-a]pyrazin-3-yl}-2-chloro-N-cyclopropylbenzamide], `COc1cc(C(=O)NC2CC2)ccc1-c1cnc2c(NCCCN)nc(-c3ccnn3C)cn12` [Example 1-102, 4-{8-[(3-Aminopropyl)amino]-6-(1-methyl-1H-pyrazol-5-yl)imidazo[1,2-a]pyrazin-3-yl}-N-cyclopropyl-3-methoxybenzamide] is 2.5-fold lower in IC50: 1340 nM for the first, 531 nM for the second.

Work on `Cc1cc(-c2cnc3c(NCC(C)C)nc(-c4ccncc4)cn23)ccc1C(=O)NC1CC1` [Example 6-1, N-cyclopropyl-2-methyl-4-{8-[(2-methylpropyl)amino]-6-(pyridin-4-yl)imidazo[1,2-a]pyrazin-3-yl}benzamide] yielded an IC50 of 1.5 nM.
